The source of these data is ChEMBL document CHEMBL5050847, “Targeting pleckstrin-2 for treating cancer” (2020).

The source made the active and inactive calls. The calls are words filed in the database; no cut-off is given here.

A short description of data set [1]: Inhibition of Plek2 in Ter119-positive mouse fetal liver erythroid progenitor cells cultured in erythropoietin containing medium assessed as decrease in terminal enucleation of erythroblasts measured by HTS assay. In kind it is tissue-based.
A short description of data set [2]: Inhibition of Plek2 in Ter119-positive mouse fetal liver erythroid progenitor cells cultured in erythropoietin containing medium assessed as decrease in cell proliferation measured by HTS assay. It is filed as tissue-based.
Another data set concerns COS-7. Kind of data set: Inhibition of Plek2 in African green monkey COS-7 cells overexpressing Plek2 at 10 uM assessed as decrease in lamellipodia formation. In kind it is cell-based. As to conditions: Chlorocebus aethiops.
For the next data set, the species on record is Homo sapiens. Briefly: Binding affinity towards GST-tagged Plek2 (unknown origin) at 200 uM measured by isothermal calorimetry (ITC) assay relative to control. (ITC needs no label: the signal is the heat of the interaction.)
The test system of data set [3] is Mus musculus. Kind of data set: Protection against erythropoietin-induced myeloproliferation in wild type mouse assessed as reduction in reticulocytosis at 40 mg/kg, ip administered every 2 days for 8 days. It is filed as functional, organism-based. To be noted: time 2.0 day.
The nature of data set [4]: Inhibition of Plek2 in Ter119-negative mouse fetal liver erythroid progenitor cells overexpressing Plek2 cultured in erythropoietin containing medium assessed as decrease in cell proliferation measured by HTS assay. In kind it is tissue-based.
The subject of data set [5] is Mus musculus. Briefly: Protection against erythropoietin-induced myeloproliferation in wild type mouse assessed as reduction in splenomegaly at 40 mg/kg, ip administered every 2 days for 8 days. In kind it is functional, organism-based. To be noted: time 2.0 day.
Data set [6] in a line: Toxicity in Jak2 V617F-konckin induced myeloproliferation in mouse assessed as induction of side effects at 25 mg/kg, ip administered once every two days. In kind it is organism-based. To be noted: in vivo, 48 h, time 2 day.
Data set [7] has as its system Mus musculus. Kind of data set: Protection against erythropoietin-induced myeloproliferation in wild type mouse assessed as improvement in lung vasculature at 40 mg/kg, ip administered every 2 days for 8 days. In kind it is functional, organism-based. As to conditions: time 2.0 day.
The test system of another data set is Bone marrow cell. Briefly: Inhibition of Plek2 in mouse bone marrow lineage negative cells expressing wild-type Plek2 and treated with erythropoietin at 10 uM assessed as inhibition of Akt phosphorylation measured by western blot analysis. In kind it is cell-based.
Data set [8] relates to Mus musculus. Briefly: Protection against Jak2 V617F-konckin induced myeloproliferation in mouse assessed as reduction in spleen size at 25 mg/kg, ip administered once every two days. It is filed as functional, organism-based. As to conditions: time 2.0 day.
For data set [9], the system named is Mus musculus. Briefly: Protection against erythropoietin-induced myeloproliferation in wild type mouse assessed as reduction in leucocytosis at 40 mg/kg, ip administered every 2 days for 8 days. In kind it is functional, organism-based. As to conditions: time 2.0 day.
Data set [10] can be described thus: Toxicity in wild type mouse assessed as hematologic abnormalities at 40 mg/kg, ip administered every 2 days for 8 days. It is filed as organism-based. To be noted: in vivo, 48 h, time 2 day.
In data set [11] the test system is Mus musculus. Briefly: Protection against Jak2 V617F-konckin induced myeloproliferation in mouse assessed as normalization of white blood cell count at 25 mg/kg, ip administered once every two days. As to conditions: time 2.0 day. In kind it is functional, organism-based.
Data set [12] relates to Mus musculus. Briefly: Protection against Jak2 V617F-konckin induced myeloproliferation in mouse assessed as reduction in extramedullary erythropoiesis at 25 mg/kg, ip administered once every two days. It is filed as functional, organism-based. To be noted: time 2.0 day.
Data set [13] concerns Mus musculus. Kind of data set: Protection against erythropoietin-induced myeloproliferation in wild type mouse assessed as reduction in vascular occlusions at 40 mg/kg, ip administered every 2 days for 8 days. As to conditions: time 2.0 day. It is filed as functional, organism-based.
For data set [14], the system named is Mus musculus. Briefly: Protection against Jak2 V617F-konckin induced myeloproliferation in mouse assessed as reduction in red blood cell count at 25 mg/kg, ip administered once every two days. It is filed as functional, organism-based. As to conditions: time 2.0 day.
Data set [15] is described as follows: Acute toxicity in mouse assessed as drug tolerability time at 40 mg/kg, ip administered as single dose. It is filed as organism-based. To be noted: in vivo.
Data set [16] has as its system Mus musculus. Kind of data set: Protection against erythropoietin-induced myeloproliferation in wild type mouse assessed as reduction in erythrocytosis in spleen red pulp at 40 mg/kg, ip administered every 2 days for 8 days. In kind it is functional, organism-based. As to conditions: time 2.0 day.
The test system of data set [17] is Mus musculus. Briefly: Protection against Jak2 V617F-konckin induced myeloproliferation in mouse assessed as reduction in vascular occlusions in lung at 25 mg/kg, ip administered once every two days. It is filed as functional, organism-based. To be noted: time 2.0 day.
A further data set has as its system Jurkat. Kind of data set: Effect on Plek2 cell membrane localization in human Jurkat cells overexpressing GFP-Plek2 at 100 nM measured by real-time confocal imaging analysis. It is filed as functional, cell-based.

Consider `O=C(c1c[nH]c2ccccc12)C(O)C(c1ccccc1)N1CCN(CCO)CC1` (stereo unspecified), for which the IC50 in [1] and in [2] was 40 µM each time. For the same compound, the inhibition entry with COS-7 was “Active”. For the same compound, the result in the data set filed under Homo sapiens was Active.

Regarding `CN1CCN(C(c2ccc(Cl)cc2)C(O)C(=O)c2c[nH]c3ccccc23)CC1` (stereo unspecified), the result in the data set with Mus musculus [3], in the data set on Mus musculus [5], in the data set on Mus musculus [7], in the data set with Mus musculus [8], in the data set on Mus musculus [9] and in the data set on Mus musculus [11] was Active. The result in the data set on Mus musculus [12], with Mus musculus [13], in the data set on Mus musculus [14], in the data set on Mus musculus [16], with Mus musculus [17] and in the data set on Jurkat was Active. Moreover, the IC50 (commonly the concentration at which inhibition is half-maximal) in [4] was less than 10 µM. Besides, the Activity result in data set [6] and in data set [10] was “Non-Toxic” in each case. Moreover, the inhibition result with Bone marrow cell was “Active”. Moreover, in data set [15], the Time was found to be 2 days.
